From US20230405151A1, “USE OF IRAK4 MODULATORS FOR GENE THERAPY” (Genzyme Corporation, priority 2022, published 2023) come the findings set out here.

For the assay, the system named is phosphorylation of IRAK4 kinase target protein NFkB. Briefly: AlphaLISA SureFire Ultra p-NFκB (Ser536) assay after LPS. To be noted: doses 16 nM, 80 nM, 400 nM and 2000 nM; LPS 300 ng/ml. It counts as cell-based, human. The protocol:
IRAK4 targeting drugs and AAV Treatments. Dendritic cells were plated in 96 well plates with 200,000 cells per well. Each treatment was performed in triplicates. Cells were treated with zimlovisertib IRAK4 inhibitor (Synonyms: PF-06650833) Cat. No.: HY-19836 (MedChemExpress) and PROTAC IRAK4 degrader-1 Cat. No.: HY-129966 (MedChemExpress) at 16 nm, 80 nm, 400 nm and 2000 nm for 18 hrs at 37° C., 5% CO2 in an incubator. After pre-treatment of 18 hrs with the drugs, AAV vectors at 1e5 MOI were used. The cells were incubated at 37° C., 5% CO2 in an incubator for 24 hours. After 24 hours, plates were centrifuged and media supernatant was collected. The clarified media was analyzed by Meso Scale Discovery MSD (world wide web mesoscale.com/products/v-plex-proinflammatory-panel-1-human-kit-k15049d/) performed by DC3 therapeutics https://www.dc3therapeutics.com/services. The experiment outline of PBMC isolation, monocyte purification and dendritic cell differentiation is illustrated in FIG. 1. […]
AlphaLISA assay. […] Finally, SA-donor beads are added and 30 min later plates are read using EnVision-Alpha Reader (615 nm) https://resources.perkinelmer.com/lab-solutions/resources/docs/MAN_AlphaLISA_IRAK4_AL3117.pdf?_gl=1*7jzf5d*_ga*MzQ4MTQ1NzA3LjE2NDY2NzY5MjI.*_ga_W34ZJ1Z1Q1*MTY3NzE5MjAyOS4zLjEuMTY3NzE5MjA2Mi4yNy4wLjA.&_ga=2.178521252.1409175695.1677192029-348145707.1646676922. […]
For orientation: Bead proximity is the source of the signal in Alpha formats.

Molecules are shown by their SMILES.

`CC[C@@H]1[C@H](F)C(=O)N[C@@H]1COc1nccc2cc(C(N)=O)c(OC)cc12` [zimlovisertib, 1-[[(2S,3S,4S)-3-Ethyl-4-fluoro-5-oxo-2-pyrrolidinyl]methoxy]-7-methoxy-6-isoquinolinecarboxamide]: the “Phosphorylation of NFkB induced by LPS” value was “blocks phosphorylation of NFkB at 400 nM and 2000 nM”.
